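Compound exposure: 48 hours, 5 concentrations, 96-well plates. TGI: concentration producing complete growth inhibition.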
Experiments:
Assay in all cases: NCI tumour cell line growth inhibition, 48 h
[1] = system: KM12 colon
[2] = system: TK-10 renal
[3] = system: SNB-19 CNS
[4] = system: SF-295 CNS
[5] = system: SN12C renal
[6] = system: OVCAR-5 ovarian
[7] = system: HCC-2998 colon
[8] = system: SW-620 colon
[9] = system: MALME-3M melanoma
[10] = system: T-47D breast
[11] = system: COLO 205 colon
[12] = system: NCI-H23 lung
[13] = system: DU-145 prostate
[14] = system: CAKI-1 renal
[15] = system: IGROV1 ovarian
[16] = system: MDA-MB-435
[17] = system: 786-0 renal
[18] = system: SK-MEL-5 melanoma
[19] = system: NCI-H522 lung

SMILES	TGI [1]	TGI [2]	TGI [3]	TGI [4]	TGI [5]	TGI [6]	TGI [7]	TGI [8]	TGI [9]	TGI [10]	TGI [11]	TGI [12]	TGI [13]	TGI [14]	TGI [15]	TGI [16]	TGI [17]	TGI [18]	TGI [19]
CC(=O)NNc1nc(C)c(C(/C=C/c2ccc([N+](=O)[O-])cc2)=N/N)s1	> 100 µM	> 100 µM	> 100 µM	> 100 µM	> 100 µM	> 100 µM	> 100 µM	> 100 µM	> 100 µM	> 100 µM	> 100 µM	> 100 µM	> 100 µM	> 100 µM	> 100 µM	> 100 µM	> 100 µM	> 100 µM	> 100 µM
O=C(NCCCCN(CCCNC(=O)C(F)(F)F)Cc1ccc2ccccc2c1)C(F)(F)F	32.1 µM	47.9 µM	29 µM	32.7 µM	30.3 µM	32.6 µM	26.8 µM	32.4 µM	29.1 µM	40.2 µM	30.3 µM	44.6 µM	56.1 µM	28.1 µM	32.9 µM	35.7 µM	30.6 µM	48.9 µM	36.7 µM
S=C1Cc2c(-c3ccc(Cl)cc3)cc(-c3ccccc3)nc2-c2ccccc2N1	50.9 µM	30.2 µM	21.5 µM	34.1 µM	31.3 µM	92.9 µM	> 100 µM	> 100 µM	35.9 µM	> 100 µM	49.5 µM	27.2 µM	> 100 µM	13.1 µM	14 µM	46 µM	21.8 µM	> 100 µM	40.2 µM
CC(=O)c1c(SCCN2CCCC2)n(-c2ccccc2)c(=S)n(-c2ccccc2)c1=O	> 55.7 µM	8.5 µM	> 77.1 µM	> 100 µM	20.5 µM	> 100 µM	11.9 µM	6.76 µM	12.2 µM	5.42 µM	3.48 µM	37.4 µM	8.85 µM	10.2 µM	19.4 µM	13.2 µM	3.12 µM	20.8 µM	8.31 µM
C/C(=C\c1ccccc1)C(=O)NCc1ccc(C(=O)NCCC(C)C)cc1	> 100 µM	> 100 µM	> 100 µM	> 100 µM	> 100 µM	> 100 µM	> 100 µM	> 100 µM	> 100 µM	> 100 µM	> 100 µM	> 100 µM	> 100 µM	> 100 µM	> 100 µM	> 100 µM	> 100 µM	> 100 µM	> 100 µM
COC(=O)C1CCOC(C)N1C(=O)OC(C)(C)C (stereo not drawn)	> 100 µM	> 100 µM	> 100 µM	> 100 µM	> 100 µM	> 100 µM	> 100 µM	> 100 µM	> 100 µM	> 100 µM	> 100 µM	> 100 µM	> 100 µM	> 100 µM	> 100 µM	> 100 µM	> 100 µM	> 100 µM	> 100 µM
Cc1cc(NS(=O)(=O)c2ccc(NC(=O)c3ccc4[nH]c5ccccc5c(=O)c4c3)cc2)no1	> 100 µM	> 100 µM	> 100 µM	> 100 µM	> 100 µM	> 100 µM	> 100 µM	> 100 µM	> 100 µM	> 100 µM	> 100 µM	> 100 µM	> 100 µM	> 100 µM	> 100 µM	> 100 µM	> 100 µM	> 100 µM	> 100 µM
CC(C)C[C@H](NC(=O)[C@H](Cc1ccccc1)NC(=O)CCc1ccccc1)B(O)O	0.0101 µM	< 0.01 µM	1.08 µM	< 0.01 µM	< 0.01 µM	< 0.01 µM	< 0.01 µM	< 0.0104 µM	< 0.01 µM	< 0.01 µM	< 0.01 µM	< 0.01 µM	< 0.01 µM	0.0554 µM	< 0.01 µM	< 0.01 µM	< 0.01 µM	< 0.01 µM	< 0.01 µM
O=[N+]([O-])c1ccc2[nH]nc(OCc3ccccn3)c2c1	> 100 µM	> 100 µM	> 100 µM	> 100 µM	> 100 µM	> 100 µM	> 100 µM	> 100 µM	> 100 µM	> 100 µM	> 100 µM	> 100 µM	> 100 µM	> 100 µM	> 100 µM	> 100 µM	> 100 µM	> 100 µM	> 100 µM
CC1=NOC2(C1)C(=O)Nc1ccccc12 (stereo not drawn)	> 100 µM	> 100 µM	> 100 µM	> 100 µM	> 100 µM	> 100 µM	> 100 µM	> 100 µM	> 100 µM	> 100 µM	> 100 µM	> 100 µM	> 100 µM	> 100 µM	> 100 µM	> 100 µM	> 100 µM	> 100 µM	> 100 µM
COC(=O)C1=C(C(=O)OC)C(Cc2ccccc2)(OO)OC1=O (stereo not drawn)	39.1 µM	15 µM	58.9 µM	> 100 µM	98 µM	54.2 µM	> 100 µM	> 100 µM	24.5 µM	> 100 µM	> 100 µM	44.4 µM	> 100 µM	19.4 µM	24.5 µM	> 100 µM	> 100 µM	> 100 µM	6.71 µM
CN(C)Cc1cc(N=Nc2cccc(Cl)c2)ccc1O	22 µM	23.2 µM	51.3 µM	27.8 µM	95.3 µM	30.1 µM	27.9 µM	23.7 µM	31.6 µM	34 µM	38.5 µM	57.9 µM	27.9 µM	61.1 µM	27.1 µM	15.8 µM	27.4 µM	14.2 µM	23.9 µM
